The record followed here is patent publication US20240099302A1, “Use of a Biobased Composition Comprising Ferulated Chitosan for Regulating and Stimulating Plant Growth” (FYTEKO SA, priority 2020, published 2024).

For this test, the system named is new guinea impatient plants cultivar Sony pink. Description: Effect of foliar spraying on flowering of new guinea impatient plants. Type of test: in vivo. The note with it: foliar spraying once a week for 8 weeks, evaluated 22 weeks after sowing. Here is the method: Different treatments were applied by foliar spraying on one-month old new guinea impatient plants cultivar Sony pink once a week for 8 weeks. The effect of foliage of application on the inflorescence was evaluated at the end of the flowering step (22 weeks after sowing) and the results are shown in Table 12.

As for `COc1cc(/C=C/C(=O)O)ccc1O` [Ferulic acid], the “Average diameter of the flowers” value turned out to be 6.40 cm and the “Total number of flowers per plant” value came out at 60.0.
The like results for Diferulic acid were, in that order, 6.52 cm and 74.2.
